Measured values: ChEMBL document CHEMBL3046223, “Compounds against inflammation and oxidative insult as potential agents for neurodegenerative disorders” (Med Chem Res, 2012)
Values belong to the molecule of their own block, whether it stands above or below them.

Tests used:
Rattus norvegicus [1] = assay: Toxicity in Rattus norvegicus (rat) assessed as body weight change per 100 gram body weight at 200 umol/kg, sc qd for 4 days; format: organism-based; conditions: in vivo, 96 h
Rattus norvegicus [2] = assay: Gastrointestinal toxicity in Rattus norvegicus (rat) assessed as incidence of melena at 200 umol/kg, sc qd for 4 days; format: organism-based; conditions: in vivo, 96 h
[3] = molecular target: T1, Prostaglandin G/H synthase 1 (Ovis aries) (UniProt P05979); assay: Inhibition of Ovis aries (sheep) COX1 assessed as formation of PGF2a at 200 uM by enzyme immunoassay
T1 sequence (whole entry): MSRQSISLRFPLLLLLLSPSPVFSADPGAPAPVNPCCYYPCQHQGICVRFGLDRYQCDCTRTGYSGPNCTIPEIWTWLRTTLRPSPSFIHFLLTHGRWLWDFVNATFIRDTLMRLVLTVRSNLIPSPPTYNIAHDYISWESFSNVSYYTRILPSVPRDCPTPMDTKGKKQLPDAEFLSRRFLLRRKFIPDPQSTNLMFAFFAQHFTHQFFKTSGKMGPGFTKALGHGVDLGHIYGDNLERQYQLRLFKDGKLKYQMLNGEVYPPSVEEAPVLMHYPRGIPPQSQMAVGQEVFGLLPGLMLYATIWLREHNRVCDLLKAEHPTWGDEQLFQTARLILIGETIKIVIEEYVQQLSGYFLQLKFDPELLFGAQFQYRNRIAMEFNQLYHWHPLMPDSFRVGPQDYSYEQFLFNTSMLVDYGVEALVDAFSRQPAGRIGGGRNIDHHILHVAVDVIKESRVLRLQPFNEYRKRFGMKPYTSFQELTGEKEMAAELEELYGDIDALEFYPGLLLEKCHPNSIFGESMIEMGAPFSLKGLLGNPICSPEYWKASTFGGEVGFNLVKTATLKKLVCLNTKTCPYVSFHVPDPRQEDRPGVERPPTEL

Rattus norvegicus [4] = assay: Gastrointestinal toxicity in Rattus norvegicus (rat) assessed as perforating ulcers at 200 umol/kg, sc qd for 4 days; format: organism-based; conditions: in vivo, 96 h
[5] = Toxicity in Rattus norvegicus (rat) assessed as mortality at 200 umol/kg, sc qd for 4 days; format: organism-based; conditions: in vivo
Rattus norvegicus [6] = assay: Anti-inflammatory activity in Rattus norvegicus Fischer-344 (rat) assessed as inhibition of carrageenan-induced paw oedema at 0.30 mmol/kg, ip administered 5 min before […] measured after 3 hr relative to control; format: functional; conditions: Fischer-344, ip
[7] = molecular target: T2, Seed linoleate 13S-lipoxygenase-1 (Glycine max, UniProt P08170); assay: Inhibition of Glycine max (soybean) lipoxygenase assessed as formation of 13-hydroperoxylinoleic acid using sodium linoleate as substrate after 7 min
T2 sequence (P08170 whole entry): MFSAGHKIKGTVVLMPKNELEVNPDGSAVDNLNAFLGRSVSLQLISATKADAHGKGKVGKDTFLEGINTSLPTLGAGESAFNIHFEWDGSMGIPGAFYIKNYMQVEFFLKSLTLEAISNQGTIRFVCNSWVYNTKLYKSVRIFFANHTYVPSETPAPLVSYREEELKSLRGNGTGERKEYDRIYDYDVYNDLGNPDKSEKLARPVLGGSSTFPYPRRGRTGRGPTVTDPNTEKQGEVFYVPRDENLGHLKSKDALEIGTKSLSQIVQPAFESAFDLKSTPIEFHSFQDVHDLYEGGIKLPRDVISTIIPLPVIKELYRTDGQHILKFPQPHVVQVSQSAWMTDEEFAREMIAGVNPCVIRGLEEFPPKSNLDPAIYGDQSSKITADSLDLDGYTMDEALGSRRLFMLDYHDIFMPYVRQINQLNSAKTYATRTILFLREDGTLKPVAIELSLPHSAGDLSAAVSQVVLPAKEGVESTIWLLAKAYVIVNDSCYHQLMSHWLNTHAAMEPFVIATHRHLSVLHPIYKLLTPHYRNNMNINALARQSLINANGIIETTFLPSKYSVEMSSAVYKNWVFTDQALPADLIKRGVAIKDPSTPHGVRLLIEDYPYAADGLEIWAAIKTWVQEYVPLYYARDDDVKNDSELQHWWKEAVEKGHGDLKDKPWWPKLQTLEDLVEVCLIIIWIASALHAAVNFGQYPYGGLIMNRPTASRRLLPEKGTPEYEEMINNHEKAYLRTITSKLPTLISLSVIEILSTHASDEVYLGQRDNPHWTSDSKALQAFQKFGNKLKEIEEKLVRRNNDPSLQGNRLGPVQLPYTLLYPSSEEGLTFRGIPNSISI

Mus musculus [8] = assay: Anti-inflammatory activity in Balb-C Mus musculus (mouse) assessed as inhibition of FCA-induced paw oedema at 0.30 mmol/kg, ip administered 5 min before FCA challenge measured after 3 hr relative to control; format: functional
Liver microsome [9] = assay: Antioxidant activity in Rattus norvegicus (rat) liver microsomal fraction assessed as inhibition of lipid peroxidation after 45 min by spectrophotometric analysis; format: functional, microsomes; conditions: 0.75 h
[10] = Drug uptake in Rattus norvegicus (rat) brain at 0.6 mmol/kg, ip after 30 min by RP-HPLC analysis; format: ADME, organism-based; conditions: read-out: Drug uptake
[11] = Ratio of drug level in brain to blood in Rattus norvegicus (rat) at 0.6 mmol/kg, ip after 3 hr by RP-HPLC analysis; format: ADME, organism-based
[12] = Drug uptake in Rattus norvegicus (rat) brain at 0.6 mmol/kg, ip after 120 min by RP-HPLC analysis; format: ADME, organism-based; conditions: read-out: Drug uptake
[13] = Drug uptake in Rattus norvegicus (rat) brain at 0.6 mmol/kg, ip after 60 min by RP-HPLC analysis; format: ADME, organism-based; conditions: read-out: Drug uptake
[14] = Ratio of drug level in brain to blood in Rattus norvegicus (rat) at 0.6 mmol/kg, ip after 2 hr by RP-HPLC analysis; format: ADME, organism-based
Liver microsome [15] = assay: Antioxidant activity in Rattus norvegicus (rat) liver microsomal fraction assessed as inhibition of lipid peroxidation at 1 mM after 45 min by spectrophotometric analysis; format: functional, microsomes
[16] = Toxicity in Rattus norvegicus (rat) assessed as mortality at 84 umol/kg, sc qd for 4 days; format: organism-based; conditions: in vivo
Rattus norvegicus [17] = assay: Gastrointestinal toxicity in Rattus norvegicus (rat) assessed as perforating ulcers at 84 umol/kg, sc qd for 4 days; format: organism-based; conditions: in vivo, 96 h
Mus musculus [18] = assay: Anti-inflammatory activity in Balb-C Mus musculus (mouse) assessed as inhibition of FCA-induced paw oedema at 0.15 mmol/kg, ip administered 5 min before FCA challenge measured after 3 hr relative to control; format: functional
Rattus norvegicus [19] = assay: Toxicity in rat assessed as body weight change per 100 gram body weight at 84 umol/kg, sc qd for 4 days; format: organism-based; conditions: in vivo, 96 h
Rattus norvegicus [20] = assay: Gastrointestinal toxicity in Rattus norvegicus (rat) assessed as incidence of melena at 84 umol/kg, sc qd for 4 days; format: organism-based; conditions: in vivo, 96 h
Rattus norvegicus [21] = assay: Anti-inflammatory activity in Rattus norvegicus (rat) ischemia-reperfusion model assessed as reduction of malondialdehyde formation in brain at 0.4 mmol/kg, ip qd for 4 days and dose repeated 2 hr before initiation of ischemia measured 90 min after reperfusion; format: functional

Compound: CC(C(=O)O)c1cccc(C(=O)c2ccccc2)c1 (stereo unspecified) [KETOPROFEN]
Activity (Rattus norvegicus [1]): -24 g
Activity (Rattus norvegicus [2]): 100%
inhibition [3]: 86%
Activity (Rattus norvegicus [4]): 85%
mortality at 96 h [5]: 50%

IC50 [7]: 90 µM
Compound: COc1ccc2cc(C(C)C(=O)Oc3ccc(C)cc3OC)ccc2c1 (stereo unspecified)
inhibition in vivo at 300 µmol/kg (Rattus norvegicus [6]): 40%

IC50 [7]: 46 µM
Compound: COc1ccc2cc(C(C)C(=O)N3CCCC3C(=O)OCCCc3cccnc3)ccc2c1 (stereo unspecified)
inhibition in vivo at 300 µmol/kg (Rattus norvegicus [6]): 24%

inhibition [3]: 71%
IC50 [7]: 28 µM
Compound: COc1ccc2cc(C(C)C(=O)OCCCc3cccnc3)ccc2c1 (stereo unspecified)
inhibition in vivo at 300 µmol/kg (Rattus norvegicus [6]): 27%

Compound: CC(C)Cc1ccc([C@H](C)C(=O)O)cc1 [DEXIBUPROFEN]
inhibition in vivo at 300 µmol/kg (Mus musculus [8]): 53%

IC50 (Liver microsome [9]): 650 µM
Compound: CC(C(=O)NCCS)c1cccc(C(=O)c2ccccc2)c1 (stereo unspecified)
inhibition in vivo at 300 µmol/kg (Rattus norvegicus [6]): 39%

IC50 [7]: 45 µM
Compound: CC(C)Cc1ccc(C(C)C(=O)OCCCc2cccnc2)cc1 (stereo unspecified)
inhibition in vivo at 300 µmol/kg (Mus musculus [8]): 59%

IC50 [7]: 60 µM
Compound: CC(C)Cc1ccc(C(C)C(=O)N2CCCC2C(=O)OCCCc2ccccc2)cc1 (stereo unspecified)
inhibition in vivo at 300 µmol/kg (Mus musculus [8]): 31%

inhibition [3]: 16%
Compound: COc1ccc2cc(C(C)C(=O)N3CCCC3C(=O)Oc3ccc(C)cc3OC)ccc2c1 (stereo unspecified)
inhibition in vivo at 300 µmol/kg (Rattus norvegicus [6]): 20%

IC50 [7]: 60 µM
Compound: COc1cc(C)ccc1OC(=O)C1CCCN1C(=O)C(C)c1cccc(C(=O)c2ccccc2)c1 (stereo unspecified)
inhibition in vivo at 300 µmol/kg (Rattus norvegicus [6]): 13%

concentration at 0.5 h [10]: 26600 ng/g
Kp at 3 h [11]: 0.004
concentration at 2 h [12]: 710 ng/g
concentration at 1 h [13]: 5700 ng/g
Kp at 2 h [14]: 0.04
Compound: COc1ccc2cc([C@H](C)C(=O)N3CC(O)CC3C(=O)NCCS)ccc2c1 (stereo partly specified)

concentration at 0.5 h [10]: 1590 ng/g
concentration at 2 h [12]: 27800 ng/g
concentration at 1 h [13]: 40800 ng/g
Compound: CCOC(=O)C(CS)NC(=O)C1CCCN1C(=O)C(C)c1ccc(CC(C)C)cc1 (stereo unspecified)

IC50 [7]: 65 µM
Compound: COc1cc(C)ccc1OC(=O)C(C)c1ccc(CC(C)C)cc1 (stereo unspecified)
inhibition in vivo at 300 µmol/kg (Mus musculus [8]): 43%

Compound: C[C@H](C(=O)O)c1cccc(C(=O)c2ccccc2)c1 [DEXKETOPROFEN]
inhibition in vivo at 300 µmol/kg (Rattus norvegicus [6]): 42%

concentration at 0.5 h [10]: 9780 ng/g
concentration at 2 h [12]: 35200 ng/g
concentration at 1 h [13]: 10200 ng/g
Compound: CC(C)Cc1ccc(C(C)C(=O)N2CCCC2C(=O)NCCS)cc1 (stereo unspecified)

IC50 [7]: 240 µM
Compound: CC(C)Cc1ccc(C(C)C(=O)N2CCCC2C(=O)OCCO[N+](=O)[O-])cc1 (stereo unspecified)
inhibition (Liver microsome [15]): 14%
inhibition in vivo at 300 µmol/kg (Mus musculus [8]): 62%

Compound: COc1ccc2c(c1)c(CC(=O)O)c(C)n2C(=O)c1ccc(Cl)cc1 [INDOMETHACIN]
mortality at 96 h [16]: 50%
Activity (Rattus norvegicus [17]): 80%
inhibition in vivo at 150 µmol/kg (Mus musculus [18]): 68%
Activity (Rattus norvegicus [19]): -15 g
Activity (Rattus norvegicus [20]): 100%

Compound: CC(C(=O)OCCCc1cccnc1)c1cccc(C(=O)c2ccccc2)c1 (stereo unspecified)
inhibition in vivo at 300 µmol/kg (Rattus norvegicus [6]): 61%
Activity (Rattus norvegicus [1]): -13 g
Activity (Rattus norvegicus [2]): 60%
inhibition [3]: 87%
Activity (Rattus norvegicus [4]): 50%
mortality at 96 h [5]: 33%
IC50 [7]: 145 µM

IC50 (Liver microsome [9]): 390 µM
Compound: CCOC(=O)C(CS)NC(=O)C1CCCN1C(=O)Cc1c(C)n(C(=O)c2ccc(Cl)cc2)c2ccc(OC)cc12 (stereo unspecified)
inhibition in vivo at 150 µmol/kg (Mus musculus [18]): 25%
inhibition in vivo at 300 µmol/kg (Mus musculus [8]): 44%
Activity (Rattus norvegicus [21]): 3 nmol/mg

Compound: COc1ccc2c(c1)c(CC(=O)N1CCCC1C(=O)Oc1ccc(C)cc1OC)c(C)n2C(=O)c1ccc(Cl)cc1 (stereo unspecified)
mortality at 96 h [16]: 0%
Activity (Rattus norvegicus [17]): 0%
inhibition in vivo at 150 µmol/kg (Mus musculus [18]): 49%
inhibition [3]: 16%
Activity (Rattus norvegicus [19]): 11 g
inhibition in vivo at 300 µmol/kg (Mus musculus [8]): 54%
Activity (Rattus norvegicus [20]): 0%

IC50 [7]: 320 µM
Compound: CC(C)Cc1ccc(C(C)C(=O)N2CCCC2C(=O)OCCO)cc1 (stereo unspecified)
inhibition in vivo at 300 µmol/kg (Mus musculus [8]): 24%

inhibition [3]: 52%
Compound: COc1ccc2cc([C@H](C)C(=O)O)ccc2c1 [NAPROXEN]
inhibition in vivo at 300 µmol/kg (Rattus norvegicus [6]): 51%

IC50 (Liver microsome [9]): 8 µM
Compound: CCOC(=O)C(CS)NC(=O)C1CCCCN1C(=O)Cc1c(C)[nH]c2ccc(OC)cc12 (stereo unspecified)

IC50 (Liver microsome [9]): 440 µM
IC50 [7]: 170 µM
Compound: CCOC(=O)C(CS)NC(=O)C1CCCN1C(=O)C(C)c1cccc(C(=O)c2ccccc2)c1 (stereo unspecified)
inhibition in vivo at 300 µmol/kg (Rattus norvegicus [6]): 52%
